Here are results for 21 compounds from patent US11091471B2, “Isoxazolyl ether derivatives as GABAA α5 PAM” (Hoffmann-La Roche Inc., priority 2016, dated 2021).

In assay [1] the target is T1, h-GABA-A α5β3γ2 (Homo sapiens (Human), UniProt P18507+P31644). The experiment in a line: [3H]flumazenil competition binding assay, membranes of HEK293 cells expressing human GABAA receptors. Particulars: Table 1, displacement of [3H]-Flumazenil 0.5 nM, mean of two determinations. As for the experimental part: The affinity of compounds at GABAA receptor subtypes was measured by competition for [3H]flumazenil (85 Ci/mmol; Roche) binding to HEK293 cells expressing rat (stably transfected) or human (transiently transfected) receptors of composition α1β3γ2, α2β3γ2, α3β3γ2 and α5β3γ2.
Cell pellets were suspended in Krebs-tris buffer (4.8 mM KCl, 1.2 mM CaCl2, 1.2 mM MgCl2, 120 mM NaCl, 15 mM Tris; pH 7.5; binding assay buffer), homogenized by polytron for ca. 20 sec on ice and centrifuged for 60 min at 4° C. (50000 g; Sorvall, rotor: SM24=20000 rpm). The cell pellets were resuspended in Krebs-tris buffer and homogenized by polytron for ca. 15 sec on ice. Protein was measured (Bradford method, Bio-Rad) and aliquots of 1 mL were prepared and stored at 80° C.
Assays were incubated to equilibrium for 1 hour at 4° C. and harvested onto GF/C uni-filters (Packard) by filtration using a Packard harvester and washing with ice-cold wash buffer (50 mM Tris; pH 7.5). After drying, filter-retained radioactivity was detected by liquid scintillation counting. Ki values were calculated using Excel-Fit (Microsoft) and are the means of two determinations.

The target in assay [2] is T1, h-GABA-A α5β3γ2. The experiment in a line: Two-electrode voltage clamp electrophysiology in Xenopus oocytes expressing GABAA receptors, modulation of GABA EC20 current. The class given is cell-based. As for the experimental part: Xenopus laevis oocytes at maturation stages V-VI were used for the expression of cloned mRNA encoding GABAA receptor subunits. Oocytes ready for RNA micro-injection were bought from Ecocyte, Castrop-Rauxel, Germany and stored in modified Barth's medium (composition in mM: NaCl 88, KCl 1, NaHCO3 2.4, HEPES 10, MgSO4 0.82, CaNO3 0.33, CaCl2 0.33, pH=7.5) at 20° C. until the experiment.
Oocytes were plated in 96-well plates to be used in an automated instrument (Robo-ocyte, MultiChannelSystems, Reutlingen, Germany) for microinjection and electrophysiological recordings. Approximately 50 nl of an aqueous solution containing the RNA transcripts for the subunits of the desired GABAA receptor was injected into each oocyte.
Electrophysiological experiments were performed on days 3 to 5 after the micro-injection of mRNA. During the experiment the oocytes were constantly superfused by a solution containing (in mM) NaCl 90, KCl 1, HEPES 5, MgCl2 1, CaCl2 1 (pH 7.4). Oocytes were impaled by two glass microelectrodes (resistance: 0.4 MΩ) which were filled with a solution containing KCl 1M+K-acetate 1.5 M and voltage-clamped to −80 mV. The recordings were performed at room temperature using the Roboocyte two-electrode voltage clamp system (Multichannelsystem). After an initial equilibration period of 1.5 min GABA was added for 1.5 min at a concentration evoking approximately 20% of a maximal current response (EC20). After another rest interval of 2.5 min GABA was again added evoking a response of similar amplitude and shape. […] Current traces were recorded at a digitization rate of 10 Hz during and shortly before and after the GABA application.
Each compound and concentration was tested on at least 3 oocytes.
For the analysis, the digitized current traces of the first and second GABA response were superimposed and, if necessary, rescaled to equal maximal amplitudes. The ratio between the two responses during the time interval of test compound application was calculated point by point. The extremum of the resulting “ratio trace” was taken as the efficacy (“Fold increase”) of the compound expressed as “% modulation of GABA EC20” (100*(Fold increase−1)).
A general note: In two-electrode clamp one electrode senses voltage and the other passes current.

Where [3] appears, read: Table 1, GABA at EC20, test compound at approx. 30 fold its Ki, Xenopus oocytes.
The mark [4] stands for this setting: Table 1, % modulation of GABA EC20 = 100*(Fold increase−1).

pKi: −log10 of the molar value.

As usually defined, the pKi is −log10 of the Ki, conventionally taken in molar units. Low readings indicate a high Ki, high ones a low Ki. With `Cc1ccc(-c2noc(C)c2COc2ccc(C(=O)N[C@@H]3CC[C@@H](O)C3)nn2)cn1` (racemic) [Example 152, N-((1RS,3RS)-3-hydroxycyclopentyl)-6-((5-methyl-3-(6-methylpyridin-3-yl)isoxazol-4-yl)methoxy)pyridazine-3-carboxamide], at h-GABA-A α5β3γ2 [1], the pKi is 8.28.
Turning to `Cc1ccc(-c2noc(C)c2COc2ccc(C(=O)NC3CCOC3)nn2)cn1` (racemic) [Example 45, (RS)-6-((5-methyl-3-(6-methylpyridin-3-yl)isoxazol-4-yl)methoxy)-N-(tetrahydrofuran-3-yl)pyridazine-3-carboxamide], the negative logarithm of the Ki (pKi) on h-GABA-A α5β3γ2 [1] was 8.18.
In turn, `CO[C@@H]1CC[C@@H](NC(=O)c2ccc(OCc3c(-c4ccc(C)nc4)noc3C)nn2)C1` (racemic) [Example 166, trans-N-((1RS,3RS)-3-methoxycyclopentyl)-6-((5-methyl-3-(6-methylpyridin-3-yl)isoxazol-4-yl)methoxy)pyridazine-3-carboxamide] showed a pKi at h-GABA-A α5β3γ2 [1] of 8.12. The “Fold increase h-GABA-A α5β3γ2 oocyte” value on h-GABA-A α5β3γ2 [2] (setting [3]) is listed as 1.7.
`Cc1ccc(-c2noc(C)c2COc2ccc(C(=O)NC3CCCOCC3)nn2)cn1` (racemic) [Example 187, (RS)-6-((5-methyl-3-(6-methylpyridin-3-yl)isoxazol-4-yl)methoxy)-N-(oxepan-4-yl)pyridazine-3-carboxamide] had a pKi on h-GABA-A α5β3γ2 [1] of 7.83.
Consider `O=C(N[C@H]1CCOC1)c1ccc(OCc2c(-c3ccc(Cl)nc3)noc2C2CC2)nn1` [Example 179, (S)-6-((3-(6-chloropyridin-3-yl)-5-cyclopropylisoxazol-4-yl)methoxy)-N-(tetrahydrofuran-3-yl)pyridazine-3-carboxamide], for which, on h-GABA-A α5β3γ2 [1], the pKi was 7.37. Besides, the “Fold increase h-GABA-A α5β3γ2 oocyte” value on h-GABA-A α5β3γ2 [2] (setting [3]) was 1.82.
Compound `Cc1ccc(-c2noc(C)c2COc2ccc(C(=O)NC3CCOC(C)(C)C3)nn2)cn1` (racemic) [Example 58, (RS)—N-(2,2-dimethyltetrahydropyran-4-yl)-6-((5-methyl-3-(6-methylpyridin-3-yl)isoxazol-4-yl)methoxy)pyridazine-3-carboxamide] had a negative-log Ki (pKi) at h-GABA-A α5β3γ2 [1] of 7.79.
On to `Cc1ccc(-c2noc(C)c2COc2ccc(C(=O)NC3CCS(=O)(=O)C3)nn2)cn1` (racemic) [Example 36, (RS)—N-(1,1-dioxothiolan-3-yl)-6-((5-methyl-3-(6-methylpyridin-3-yl)-1,2-oxazol-4-yl)methoxy)pyridazine-3-carboxamide], for which the negative-log Ki (pKi) at h-GABA-A α5β3γ2 [1] is 8.24.
Still for that read-out and setting: under `Cc1ccc(-c2noc(C)c2COc2ccc(C(=O)NC(C)(C)CCS(C)(=O)=O)nn2)cn1` [Example 80, 6-((5-methyl-3-(6-methylpyridin-3-yl)isoxazol-4-yl)methoxy)-N-(2-methyl-4-(methylsulfonyl)butan-2-yl)pyridazine-3-carboxamide] stands 7.88.
Take `Cc1ccc(-c2noc(C)c2COc2ccc(C(=O)N[C@H]3CCCOC3)nn2)cn1` [Example 103, (S)-6-((5-methyl-3-(6-methylpyridin-3-yl)isoxazol-4-yl)methoxy)-N-(tetrahydropyran-3-yl)pyridazine-3-carboxamide]: the “Efficacy (GABA) %” value at h-GABA-A α5β3γ2 [2] (setting [4]) amounted to 81%.
Regarding `Cc1ccc(-c2noc(C)c2COc2cnc(C(=O)NC3CCC(F)(F)CC3)cn2)cn1` [Example 86, N-(4,4-difluorocyclohexyl)-5-((5-methyl-3-(6-methyl-3-pyridyl)isoxazol-4-yl)methoxy)pyrazine-2-carboxamide], at h-GABA-A α5β3γ2 [2] (setting [3]), the “Fold increase h-GABA-A α5β3γ2 oocyte” value worked out at 2.2.
On the same count and under the same terms, the result for `Cc1ccc(-c2noc(C)c2COc2ccc(C(=O)NC3CCOCC3)cn2)nn1` [Example 108, 6-((5-methyl-3-(6-methylpyridazin-3-yl)isoxazol-4-yl)methoxy)-N-tetrahydropyran-4-yl-pyridine-3-carboxamide] reads 1.2.
As to `Cc1ccc(-c2noc(C)c2COc2ccc(C(=O)NC3CCOCC3)cn2)cc1` [RO-251, reference compound], the “Efficacy (GABA) %” value on h-GABA-A α5β3γ2 [2] (Table 2, reference compounds, % modulation of GABA EC20) is reported as −18%. In addition, the “Fold increase h-GABA-A α5β3γ2 oocyte” value at h-GABA-A α5β3γ2 [2] (Table 2, reference compounds, GABAA α5β3γ2 overexpressing oocytes) is recorded as 0.82.
Regarding `Cc1ccc(-c2noc(C)c2COc2ccc(C(=O)N[C@@]3(C)CCOC3)nn2)cn1` [Example 81, (S)-6-((5-methyl-3-(6-methylpyridin-3-yl)isoxazol-4-yl)methoxy)-N-(3-methyltetrahydrofuran-3-yl)pyridazine-3-carboxamide], the “Fold increase h-GABA-A α5β3γ2 oocyte” value on h-GABA-A α5β3γ2 [2] (setting [3]) came out at 1.8.
As to `Cc1ccc(-c2noc(C)c2COc2ccc(C(=O)NC(C)C(F)(F)F)nn2)cn1` (racemic) [Example 34, (RS)-6-((5-methyl-3-(6-methylpyridin-3-yl)isoxazol-4-yl)methoxy)-N-(1,1,1-trifluoropropan-2-yl)pyridazine-3-carboxamide], the pKi at h-GABA-A α5β3γ2 [1] was 7.88.
In the case of `Cc1ccc(-c2noc(C)c2COc2cnc(C(=O)NC3COC3)cn2)cn1` [Example 77, 5-((5-methyl-3-(6-methyl-3-pyridyl)isoxazol-4-yl)methoxy)-N-(oxetan-3-yl)pyrazine-2-carboxamide], the “Efficacy (GABA) %” value on h-GABA-A α5β3γ2 [2] (setting [4]) is given as 11%.
On h-GABA-A α5β3γ2 [1], `Cc1ccc(-c2nocc2COc2ccc(C(=O)NC3CCOCC3)cn2)cn1` [Example 44, 6-((3-(6-methyl-3-pyridyl)isoxazol-4-yl)methoxy)-N-tetrahydropyran-4-yl-pyridine-3-carboxamide] had a pKi of 7.12. Further, at h-GABA-A α5β3γ2 [2] (setting [3]), the “Fold increase h-GABA-A α5β3γ2 oocyte” value worked out at 1.54.
Regarding `Cc1ccc(-c2noc(C)c2COc2ccc(C(=O)N[C@H]3CCCC[C@H]3O)nn2)cn1` [Example 23, N-((1S,2R)-2-hydroxycyclohexyl)-6-((5-methyl-3-(6-methylpyridin-3-yl)isoxazol-4-yl)methoxy)pyridazine-3-carboxamide], on h-GABA-A α5β3γ2 [1], the pKi was 7.69. Moreover, the “Fold increase h-GABA-A α5β3γ2 oocyte” value on h-GABA-A α5β3γ2 [2] (setting [3]) is listed as 1.89.
As for `Cc1ccc(-c2noc(C)c2COc2ccc(C(=O)N3C[C@@H]4C[C@H]3CO4)nn2)cn1` [Example 151, (1S,4S)-2-oxa-5-azabicyclo[2.2.1]heptan-5-yl(6-((5-methyl-3-(6-methylpyridin-3-yl)isoxazol-4-yl)methoxy)pyridazin-3-yl)methanone], the negative logarithm of the Ki (pKi) on h-GABA-A α5β3γ2 [1] is 7.34. Also, the “Fold increase h-GABA-A α5β3γ2 oocyte” value on h-GABA-A α5β3γ2 [2] (setting [3]) is on record as 1.68.
Take `Cc1ncc(-c2noc(C)c2COc2ccc(C(=O)NC3CCOCC3)cn2)cc1F` [Example 143, 6-((3-(5-fluoro-6-methyl-3-pyridyl)-5-methyl-isoxazol-4-yl)methoxy)-N-tetrahydropyran-4-yl-pyridine-3-carboxamide]: the “Fold increase h-GABA-A α5β3γ2 oocyte” value at h-GABA-A α5β3γ2 [2] (setting [3]) is listed as 1.2.
In the case of `COC(=O)c1cc2c(cn1)[nH]c1ccccc12` [β-CCM, reference compound], the “inhibition of the GABA-evoked current” value against h-GABA-A α5β3γ2 [2] (positive control (NAM) at a maximally effective concentration) is given as ~50%. Also, the Fold increase at h-GABA-A α5β3γ2 [2] (positive control at a maximally effective concentration, 3-6 oocytes per 96-well plate) is ~0.5.
`Cc1ccc(-c2noc(C)c2COc2ccc(C(=O)NC3(C)CCOC3)nn2)cn1` (racemic) [Example 75, (RS)-6-((5-methyl-3-(6-methylpyridin-3-yl)isoxazol-4-yl)methoxy)-N-(3-methyltetrahydrofuran-3-yl)pyridazine-3-carboxamide] gave a negative-log Ki (pKi) at h-GABA-A α5β3γ2 [1] of 7.76.
